Measured values from patent US7135466B2 (Kirin Beer Kabushiki Kaisha, priority 1999, dated 2006).
Read-outs that look alike come from different tables or passages of the source.

Key:
PDGF-Ra = target: T1, PDGF-Ra (Homo sapiens, UniProt P16234); assay: Inhibitory activity against PDGF-Ra phosphorylation by PDGF-AA stimulation using G292; format: cell-based; settings: for IC50: > means inhibition at indicated concentration not more than 50%, < and << not less than 50%, read-out: PDGF (E) IC50; for inhibition at 0.1 µM: G292, at 100 nM, read-out: PDGF (E) inhibition (%) at 100 nM
T1 construct: host or cells: G-292 human osteosarcoma cells
T1 sequence (P16234 24-1089): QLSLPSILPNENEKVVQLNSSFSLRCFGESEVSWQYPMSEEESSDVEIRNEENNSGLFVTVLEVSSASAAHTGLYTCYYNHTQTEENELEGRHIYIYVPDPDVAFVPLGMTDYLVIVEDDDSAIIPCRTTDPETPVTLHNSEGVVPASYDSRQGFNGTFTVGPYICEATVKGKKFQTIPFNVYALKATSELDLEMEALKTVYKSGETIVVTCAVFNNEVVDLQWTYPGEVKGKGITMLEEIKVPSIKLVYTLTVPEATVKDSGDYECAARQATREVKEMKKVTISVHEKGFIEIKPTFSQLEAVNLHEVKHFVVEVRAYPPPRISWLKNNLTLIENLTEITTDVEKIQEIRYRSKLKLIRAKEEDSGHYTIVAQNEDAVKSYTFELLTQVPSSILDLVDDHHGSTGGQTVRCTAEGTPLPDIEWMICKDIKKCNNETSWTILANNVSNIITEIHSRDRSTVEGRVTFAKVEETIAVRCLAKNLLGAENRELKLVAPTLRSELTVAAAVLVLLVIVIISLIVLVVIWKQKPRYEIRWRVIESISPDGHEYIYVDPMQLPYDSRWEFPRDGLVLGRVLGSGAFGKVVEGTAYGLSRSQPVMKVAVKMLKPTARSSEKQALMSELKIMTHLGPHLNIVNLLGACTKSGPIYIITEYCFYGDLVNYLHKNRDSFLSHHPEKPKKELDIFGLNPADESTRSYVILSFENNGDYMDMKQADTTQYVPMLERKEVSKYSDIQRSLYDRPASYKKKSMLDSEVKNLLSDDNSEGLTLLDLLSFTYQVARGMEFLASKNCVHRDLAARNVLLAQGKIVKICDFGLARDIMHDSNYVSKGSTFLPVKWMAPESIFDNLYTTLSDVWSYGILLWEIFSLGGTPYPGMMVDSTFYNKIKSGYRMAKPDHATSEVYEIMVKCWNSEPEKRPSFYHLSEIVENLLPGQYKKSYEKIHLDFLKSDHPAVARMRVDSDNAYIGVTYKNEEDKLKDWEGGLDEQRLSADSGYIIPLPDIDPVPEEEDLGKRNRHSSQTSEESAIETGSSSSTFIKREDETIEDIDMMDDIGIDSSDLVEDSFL
Procedure, shortened: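 Read-out: A450 from a sandwich ELISA (PY-20 capture, anti-PDGF-Ra detection, peroxidase colour) of lysates from G-292 cells given compound for 1 hr at 37 °C before a 5 min challenge with PDGF-AA at 50 ng/ml.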

c-kit = target: T2, c-kit (Homo sapiens, UniProt P10721); assay: Inhibitory activity against c-kit autophosphorylation (MO7e cells, h-SCF); format: cell-based; settings: for IC50: MO7e cells, read-out: c-kit IC50; for inhibition at 1 µM: Mo7e, at 1000 nM
T2 construct: MO7e (human megakaryocytic leukemia cell line) which had been arrested for 20 hr; endogenous in cells; host or cells: MO7e human megakaryocytic leukemia cell line
T2 sequence (P10721 26-976): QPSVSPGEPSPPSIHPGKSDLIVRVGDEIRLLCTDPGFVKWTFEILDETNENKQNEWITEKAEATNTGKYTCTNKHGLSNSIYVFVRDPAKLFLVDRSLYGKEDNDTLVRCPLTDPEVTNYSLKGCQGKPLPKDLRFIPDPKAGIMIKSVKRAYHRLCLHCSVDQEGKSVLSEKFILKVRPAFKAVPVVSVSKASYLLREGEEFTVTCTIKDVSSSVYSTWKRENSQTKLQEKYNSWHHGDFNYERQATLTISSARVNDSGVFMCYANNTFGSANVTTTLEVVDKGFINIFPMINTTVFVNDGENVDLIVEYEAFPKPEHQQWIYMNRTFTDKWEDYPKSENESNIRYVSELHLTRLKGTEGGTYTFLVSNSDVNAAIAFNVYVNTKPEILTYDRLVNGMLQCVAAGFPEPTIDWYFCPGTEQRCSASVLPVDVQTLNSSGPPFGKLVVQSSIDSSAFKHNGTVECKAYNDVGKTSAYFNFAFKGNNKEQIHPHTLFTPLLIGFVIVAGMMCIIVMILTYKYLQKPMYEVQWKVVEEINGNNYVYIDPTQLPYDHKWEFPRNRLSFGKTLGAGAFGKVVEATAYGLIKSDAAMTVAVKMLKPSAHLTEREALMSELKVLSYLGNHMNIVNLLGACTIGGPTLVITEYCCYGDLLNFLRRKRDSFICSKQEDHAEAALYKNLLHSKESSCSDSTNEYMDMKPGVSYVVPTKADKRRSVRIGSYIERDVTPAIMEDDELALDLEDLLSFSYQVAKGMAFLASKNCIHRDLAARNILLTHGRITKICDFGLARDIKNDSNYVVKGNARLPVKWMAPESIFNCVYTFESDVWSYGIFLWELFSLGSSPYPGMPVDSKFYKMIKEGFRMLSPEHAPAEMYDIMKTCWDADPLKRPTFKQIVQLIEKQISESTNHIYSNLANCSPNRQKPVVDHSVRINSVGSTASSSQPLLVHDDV
Procedure, shortened: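 Ligand-induced c-kit tyrosine phosphorylation is measured in MO7e cells that were quiesced 20 hr and preincubated with compound for 1 hr prior to a 5 min pulse of 50 ng/ml human SCF. Phospho-c-kit is detected by anti-phosphotyrosine capture ELISA, A450.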

[1] = figure within parentheses in >100( )
[2] = figure within parentheses in −( ) or >1000( )
[3] = figure in parentheses in >100( )

IC50 (PDGF-Ra; Pharmacological Test Example 1) [µM]	IC50 (PDGF-Ra) [µM]	IC50 (c-kit; 50 ng/ml h-SCF) [µM]	Compound	also measured
< 0.01			C=CCOC(=O)Nc1ccc(Oc2ccnc3cc(OC)c(OC)cc23)c(C)c1C [Example 374, Allyl N-{4-[(6,7-dimethoxy-4-quinolyl)oxy]-2,3-dimethylphenyl}carbamate]	IC50 (c-kit; h-SCF 50 ng/ml): < 0.03 µM
	< 0.01	0.14	COc1cc(Oc2ncnc3cc(OC)c(OC)cc23)ccc1NC(=O)OC1CCCCCC1 [Example 498, Cycloheptyl N-{4-[(6,7-dimethoxy-4-quinazolinyl)oxy]-2-methoxyphenyl}carbamate]	
	0.023	0.472	COc1cc2nccc(Oc3ccc(NC(=O)NN4CCCCC4)cc3)c2cc1OC [Example 592, N-{4-[(6,7-Dimethoxy-4-quinolyl)oxy]phenyl}-N′-(1-piperidinyl)urea]	
< 0.01			COc1cc2nccc(Oc3ccc(NC(=O)OC(C)C)c(C)c3C)c2cc1OC [Example 325, Isopropyl N-{4-[(6,7-dimethoxy-4-quinolyl)oxy]-2,3-dimethylphenyl}carbamate]	IC50 (c-kit; h-SCF 50 ng/ml): 0.046 µM
0.016			COc1ccc(COC(=O)Nc2ccc(Oc3ccnc4cc(OC)c(OC)cc34)c(C)c2C)cc1OC [Example 63, 3,4-Dimethoxybenzyl N-{4-[(6,7-dimethoxy-4-quinolyl)oxy]-2,3-dimethylphenyl}carbamate]	IC50 (c-kit; h-SCF 50 ng/ml): 0.211 µM
	> 0.1	0.854	COc1cc2nccc(Oc3cc(C)c(NC(=O)NCCN4CCCCC4)cc3C)c2cc1OC [Example 674, N-{4-[(6,7-Dimethoxy-4-quinolyl)oxy]-2,5-dimethylphenyl}-N′-(2-piperidinoethyl)urea]	inhibition at 0.1 µM (PDGF-Ra; [1]): 43%
	0.054	0.603	CCN(CC)CCCOC(=O)Nc1ccc(Oc2ncnc3cc(OC)c(OC)cc23)cc1 [Example 429, 3-(Diethylamino)propyl N-{4-[(6,7-dimethoxy-4-quinazolinyl)oxy]phenyl}carbamate]	
	> 0.1		COc1cc2nccc(Oc3ccc(NC(=S)NC(=O)c4ccccc4C)c(Cl)c3)c2cc1OC [Example 1101, N-{2-Chloro-4-[(6,7-dimethoxy-4-quinolyl)oxy]phenyl}-N′-(2-methylbenzoyl)thiourea]	inhibition at 0.1 µM (PDGF-Ra; [3]): 37%; inhibition at 1 µM (c-kit; figure in parentheses in −( )): 26%
	0.037	0.624	COc1cc2nccc(Oc3ccc(NC(=S)NC(=O)CCCc4ccccc4)cc3Cl)c2cc1OC [Example 726, N-{3-Chloro-4-[(6,7-dimethoxy-4-quinolyl)oxy]phenyl}-N′-(4-phenylbutanoyl)thiourea]	
	0.056	> 1	COc1cc2nccc(Oc3ccc(NC(=S)NC(=O)c4ccc(Br)s4)cc3Cl)c2cc1OC [Example 693, N-[(5-Bromo-2-thienyl)carbonyl]-N′-{3-chloro-4-[(6,7-dimethoxy-4-quinolyl)oxy]phenyl}thiourea]	inhibition at 1 µM (c-kit; [2]): 46%
< 0.01			COc1ccc(COC(=O)Nc2ccc(Oc3ncnc4cc(OC)c(OC)cc34)cc2)cc1OC [Example 65, 3,4-Dimethoxybenzyl N-{4-[(6,7-dimethoxy-4-quinazolinyl)oxy]phenyl}carbamate]	IC50 (c-kit; h-SCF 50 ng/ml): 0.103 µM
	0.013	0.07	COc1cccc(CNC(=O)COc2ccc(Oc3ncnc4cc(OC)c(OC)cc34)cc2)c1 [Example 801, N1-(3-Methoxybenzyl)-2-{4-[(6,7-dimethoxy-4-quinazolinyl)oxy]phenoxy}acetamide]	

The remaining lines, values behind:

Compound	IC50 (PDGF-Ra; Pharmacological Test Example 1) [µM]	IC50 (PDGF-Ra) [µM]	IC50 (c-kit; 50 ng/ml h-SCF) [µM]	also measured
COc1cc2nccc(Oc3ccc(NC(=O)OC4CCCCCC4)cc3)c2cc1OC [Example 286, Cycloheptyl N-{4-[(6,7-dimethoxy-4-quinolyl)oxy]phenyl}carbamate]	< 0.01			IC50 (c-kit; h-SCF 50 ng/ml): 0.054 µM
COc1cc2nccc(Oc3ccc(NC(=S)NC(=O)Cc4cccs4)c(C)c3)c2cc1OC [Example 700, N-{4-[(6,7-Dimethoxy-4-quinolyl)oxy]-2-methylphenyl}-N′-[2-(2-thienyl)acetyl]thiourea]		> 0.1		inhibition at 0.1 µM (PDGF-Ra; [1]): 30%; inhibition at 1 µM (c-kit; [2]): 0%
COc1cc2ncnc(Oc3ccc(NC(=O)NCCN4CCOCC4)cc3)c2cc1OC [Example 629, N-{4-[(6,7-Dimethoxy-4-quinazolinyl)oxy]phenyl}-N′-(2-morpholinoethyl)urea]		< 0.01	0.481	
COc1cc2nccc(Oc3cc(C)c(NC(=S)NCCN4CCCCC4)cc3C)c2cc1OC [Example 514]		> 0.1		inhibition at 0.1 µM (PDGF-Ra; [1]): 31%; inhibition at 1 µM (c-kit; [2]): 29%
N-{4-[(6,7-Dimethoxy-4-quinolyl)oxy]-2,3-dimethylphenyl}-N′-[3-(1-piperidinyl)propyl]thiourea [Example 558]		0.073	0.724	
COc1cc2nccc(Oc3ccc(NC(=S)NC(=O)C(C)Oc4ccccc4Cl)cc3)c2cc1OC (centres unmarked) [Example 763, N-[2-(2-Chlorophenoxy)propanoyl]-N′-{4-[(6,7-dimethoxy-4-quinolyl)oxy]phenyl}thiourea]		0.013		inhibition at 1 µM (c-kit; [2]): 39%
CCCCCCCCCCCCCCCCCCOC(=O)Nc1ccc(Oc2ccnc3cc(OC)c(OC)cc23)cc1 [Example 326, Octadecyl N-{4-[(6,7-dimethoxy-4-quinolyl)oxy]phenyl}carbamate]	> 0.1			inhibition at 0.1 µM (PDGF-Ra; [3]): 31%; inhibition at 1 µM (c-kit; figure in parentheses in −( )): 18%
COc1cc2nccc(Oc3ccc(NC(=O)OCCCN4CCN(C)CC4)cc3)c2cc1OC [Example 424, 3-(4-Methylpiperazino)propyl N-{4-[(6,7-dimethoxy-4-quinolyl)oxy]phenyl}carbamate]		0.047	0.224	
COc1cc2ncnc(Oc3ccc(NC(=S)NC(=O)C4CC4)cc3)c2cc1OC [Example 1181, N-Cyclopropylcarbonyl-N′-{4-[(6,7-dimethoxy-4-quinazolinyl)oxy]phenyl}thiourea]		0.035		inhibition at 1 µM (c-kit; figure in parentheses in −( )): 26%
COc1cc2nccc(Oc3ccc(NC(=O)OCCCOc4ccccc4OC)c(C)c3C)c2cc1OC [Example 158, 3-(2-Methoxyphenoxy)propyl N-{4-[(6,7-dimethoxy-4-quinolyl)oxy]-2,3-dimethylphenyl}carbamate]	0.012			IC50 (c-kit; h-SCF 50 ng/ml): 0.107 µM
COc1cc2nccc(Oc3ccc(NC(=S)NC(=O)Cc4cccc5ccccc45)cc3Cl)c2cc1OC [Example 708, N-{3-Chloro-4-[(6,7-dimethoxy-4-quinolyl)oxy]phenyl}-N′-[2-(1-naphthyl)acetyl]thiourea]		0.051	0.348	
COc1cc2nccc(Oc3cc(C)c(NC(=O)Oc4ccccc4C(C)(C)C)cc3C)c2cc1OC [Example 301, 2-(Tert-butyl)phenyl N-{4-[(6,7-dimethoxy-4-quinolyl)oxy]-2,5-dimethylphenyl}carbamate]	0.043			inhibition at 1 µM (c-kit; figure in parentheses in −( )): 39%
COc1cc2nccc(Oc3ccc(NC(=O)NCCN4CCCCC4)cc3)c2cc1OC [Example 673, N-{4-[(6,7-Dimethoxy-4-quinolyl)oxy]phenyl}-N′-(2-piperidinoethyl)urea]		0.015	0.426	
COc1cccc(OCCCOc2ccc(Oc3ncnc4cc(OC)c(OC)cc34)cc2)c1 [Example 809, 6,7-Dimethoxy-4-{4-[3-(3-methoxyphenoxy)propoxy]phenoxy}quinazoline]		< 0.01		IC50 (c-kit; h-SCF stimulation): 0.073 µM
COc1cc2nccc(Oc3ccc(NC(=O)Oc4ccccc4C(C)(C)C)c(C)c3C)c2cc1OC [Example 302, 2-(Tert-butyl)phenyl N-{4-[(6,7-dimethoxy-4-quinolyl)oxy]-2,3-dimethylphenyl}carbamate]	0.012			IC50 (c-kit; h-SCF 50 ng/ml): 0.202 µM
COc1cc2nccc(Oc3cc(C)c(NC(=O)OC(C)c4ccc(C)cc4)cc3C)c2cc1OC (centres unmarked) [Example 134, 1-(4-Methylphenyl)ethyl N-{4-[(6,7-dimethoxy-4-quinolyl)oxy]-2,5-dimethylphenyl}carbamate]	> 0.1			inhibition at 0.1 µM (PDGF-Ra; [3]): 49%; IC50 (c-kit; h-SCF 50 ng/ml): 0.944 µM
COc1cc2ncnc(Oc3ccc(NC(=O)OCCCOc4ccccc4Cl)c(C)c3C)c2cc1OC [Example 211, 3-(2-Chlorophenoxy)propyl N-{4-[(6,7-dimethoxy-4-quinazolinyl)oxy]-2,3-dimethylphenyl}-carbamate]	0.017			IC50 (c-kit; h-SCF 50 ng/ml): 0.043 µM
CCN(CCNC(=O)Nc1ccc(Oc2ncnc3cc(OC)c(OC)cc23)cc1OC)c1cccc(C)c1 [Example 668, N-{4-[(6,7-Dimethoxy-4-quinazolinyl)oxy]-2-methoxyphenyl}-N′-[2-(ethyl-3-methylanilino)ethyl]urea]		< 0.01	0.144	
CCN(CC)CCNC(=S)Nc1ccc(Oc2ccnc3cc(OC)c(OC)cc23)c(C)c1C [Example 511, N-{4-[(6,7-Dimethoxy-4-quinolyl)oxy]-2,3-dimethylphenyl}-N′-(2-diethylaminoethyl)thiourea]		0.019	0.663	
COc1cc2nccc(Oc3ccc(NC(=S)NC(=O)c4cc(Cl)cc(Cl)c4)cc3)c2cc1OC [Example 1009, N-(3,5-Dichlorobenzoyl)-N′-{4-[(6,7-dimethoxy-4-quinolyl)oxy]phenyl}thiourea]		0.021		IC50 (c-kit; h-SCF stimulation): 0.243 µM
